{"source": "patent US6808877B2", "about": "“Ligands for FPR class receptors that induce a host immune response to a pathogen or inhibit HIV infection” (priority 2000, dated 2004)", "key": {"CCR5 [1]": {"system": "CCR5", "experiment": "125I-MIP-1β binding to monocytes", "set-up": "species or system human", "procedure": "Rocky Hill, N.J.). After incubation, the cells were washed with DPBS and centrifuged through a 10% sucrose/DPBS cushion. The tips of tubes containing cell pellets were cut and the cell-associated radioactivity was determined in a gamma counter. The results were presented as counts per minute (cpm) on 2×10^6 monocyte and were representative of at least three experiments performed."}, "CCR5 [2]": {"system": "CCR5", "experiment": "Surface expression of CCR5 on monocytes by flow cytometry", "format": "cell-based, human", "conditions": "FITC-anti-CCR5 2D7", "procedure": "The change of surface expression of CCR5 on monocytes was monitored by FACS analyses (courtesy of L. […] The cells were then washed twice with DPBS containing 2% BSA and fixed with 1% Paraformaldehyde (Sigma). The fluorescence was measured by flow cytometer (Becton Dickinson, San Jose, Calif.). Results are presented as the percentage of cells stained with anti-CCR5 antibody."}}, "data": [{"smiles": "CSCC[C@H](NC=O)C(=O)N[C@@H](CC(C)C)C(=O)N[C@@H](Cc1ccccc1)C(=O)O", "note": "[fMLP, N-formyl-methionyl-leucyl-phenylalanine]", "values": [{"measurement": "specific binding for 125I-MIP-1β after treatment", "setting": "CCR5 [1]; monocytes treated for 1 h", "result": "markedly reduced"}, {"measurement": "binding of 125I-MIP-1β after treatment", "setting": "CCR5 [1]; monocytes treated for up to 30 min at 37° C.", "result": "only a marginally reduced binding"}, {"measurement": "displacement of 125I-MIP-1β binding", "setting": "CCR5 [1]; monocytes, high concentrations as competitor", "result": "did not displace any"}, {"measurement": "expression of CCR5 on the cell surface", "setting": "CCR5 [2]", "result": "markedly downregulated"}]}]}
